Read-outs that look alike come from different tables or passages of the source.
How the values were obtained:
[1] = test system: SRBC specific immunoglobulin; assay: Humoral response: haemagglutination antibody titre against SRBC in normal and immunocompromised rats; format: in vivo; settings: Wistar rats, IMS-6 200 mg/Kg orally 14 days, SRBC ip day 10, Cyclophosphamide 400 mg/Kg ip day 12, serum day 14; control 3.278 ± 0.181
[2] = J. Chem. Soc., Pakistan, 1982; cited from earlier work
[3] = Indian J. Chem, 1989; cited from earlier work
[4] = target: snake venom Phosphodiesterase type I (Crotalus adamanteus, UniProt J3SEZ3); settings: cited from earlier work
snake venom Phosphodiesterase type I, sequence (J3SEZ3 24-851 limits assumed): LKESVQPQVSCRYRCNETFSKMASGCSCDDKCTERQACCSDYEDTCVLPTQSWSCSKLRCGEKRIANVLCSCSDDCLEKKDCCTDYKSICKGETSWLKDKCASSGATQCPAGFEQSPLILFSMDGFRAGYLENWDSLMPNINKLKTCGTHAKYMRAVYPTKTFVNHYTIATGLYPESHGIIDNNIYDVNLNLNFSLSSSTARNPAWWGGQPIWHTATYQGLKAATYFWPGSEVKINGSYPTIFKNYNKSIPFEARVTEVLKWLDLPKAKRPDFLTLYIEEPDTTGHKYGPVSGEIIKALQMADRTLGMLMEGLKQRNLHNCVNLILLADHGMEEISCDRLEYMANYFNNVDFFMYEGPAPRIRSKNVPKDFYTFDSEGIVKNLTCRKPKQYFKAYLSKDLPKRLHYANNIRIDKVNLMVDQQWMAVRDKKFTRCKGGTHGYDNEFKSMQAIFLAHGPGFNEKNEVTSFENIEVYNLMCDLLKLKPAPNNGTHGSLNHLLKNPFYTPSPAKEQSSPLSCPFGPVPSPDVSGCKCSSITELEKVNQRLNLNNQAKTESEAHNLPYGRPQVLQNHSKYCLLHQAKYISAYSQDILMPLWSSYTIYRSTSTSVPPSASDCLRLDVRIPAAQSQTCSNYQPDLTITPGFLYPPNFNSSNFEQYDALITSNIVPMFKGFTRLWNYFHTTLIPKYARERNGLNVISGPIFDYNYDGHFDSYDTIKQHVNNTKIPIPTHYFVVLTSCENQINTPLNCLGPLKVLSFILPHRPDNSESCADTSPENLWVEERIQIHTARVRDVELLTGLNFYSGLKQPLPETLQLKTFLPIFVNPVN

[5] = test system: IL-6 production in RAW-264.7 Cells; assay: Estimation of IL-6 production by ELISA in macrophage supernatant; format: cell-based, mouse; settings: Table 7; RAW 264.7 supernatant; control 542 ± 4
Procedure: (§1) This experiment was carried out to know whether the plant extract has stimulatory effects on the production of proinflammatory cytokines. Mouse macrophage cells, RAW 264.7 were cultured for 48 hours in the presence or in the absence of filtered plant extract. LPS was used as stimulant for proinflammatory cytokines TNF-∝ and IL-6. Supernatant of these samples were harvested immediately for estimations of TNF-∝ and IL-6 by an ELISA as per the manufacturer's protocol and recorded the results as concentrations in pg/ml.

[6] = test system: ACD sensitized L929 cells; assay: Assay for immunostimulatory effects: proinflammatory cytokine induced cell death after transfer of RAW 264.7 supernatant; format: cell-based, mouse; settings: Table 4, extract 200 μg/ml, LPS 1 μg/ml, control 0
Procedure: The extracts […] to […] and SR-1 to SR-11 were subjected to biological screening in Mouse macrophage (RAW 264.7) cell and fibroblast (L929) cells for in vitro immunomodulatory activity. Following the treatment with sub toxic levels of the extract the percent death in the ACD sensitised cells was taken as end point.
The stock solution of the plant extract was prepared in specified solvent at a concentration of 50 mg/ml. The working concentration of 10 mg/ml solution was prepared in incomplete Dulbecco's Modified Eagle's Medium (DMEM) and filter sterilized for further use in the assays.
Mouse macrophage (RAW 264.7) cells and fibroblast (L929) cells were used in the in vitro assays. These were maintained in DMEM supplemented with 10% fetal calf serum (FCS) at 37° C. in a humidified atmosphere containing 5% CO2/95% air. The cells were sub cultured upon confluence.
Mouse macrophage (RAW 264.7) cells were plated at a cell density of 1×10^5 cells/well in a 96 well micro titer plate. After 24 h of incubation they were treated with filtered extract (200 μg/ml), Lipopolysaccharide (1 μg/ml) or media alone and incubated for a further period of 18-24 h. The supernatants as such or diluted ( 1/10th or 1/20th) were transferred to pre-incubated (24 h) L929 cells ([…]). […]

[7] = test system: RAW-264.7 Cells; assay: Nitric oxide (NO) estimation, nitrite released from mouse macrophage cells; format: cell-based; settings: Table 5, 48 h, LPS 1 μg/ml, control 800 ± 50
Procedure: Macrophages are part of immune system (innate immunity) which phagocytose the intruder organism and kill them by release of toxic Nitric Oxide (NO). In this experiment, the ability of the plant extract to stimulate the macrophages for NO production was measured as nitrite released from mouse macrophage cells. Mouse macrophage cells were plated in 96-well culture plates (1×10^5 cells/well) and incubated for 24 h at 37° C. in a humidified atmosphere containing 5% CO2/95% air. The spent media from each well was aspirated and replenished with fresh media and further incubated for 48 h with desired concentration of extract in presence or in absence of Lipopolysaccharide (LPS 1 μg/ml). NO production in the supernatant was measured by micro plate assay. Cell supernatant was mixed with an equal volume of the Griess reagent (1% sulfanilaminde and 0.1% N-[napthyl]ethylenediamine dihydrochloride in 2.5% H3PO4) at room temperature for 10 min. The absorbance at 540 nm was determined in a microtiter plate reader (Anthos HT II). NO estimation was carried out using standard curve plotted against known quantity of […]. Results presented are in μM concentration obtained from mean OD of triplicate wells of each group.

[8] = test system: TNF-α production in RAW-264.7 Cells; assay: Estimation of TNF-α production by ELISA in macrophage supernatant; format: cell-based, mouse; settings: Table 6; RAW 264.7 supernatant; control 1662.00 ± 3.50
Procedure: as §1

O=P1(N(CCCl)CCCl)NCCCO1 (stereo not shown) [Cyclophosphamide]
Antibody titre [1]: 0.444 ± 0.141

C[C@H]1N[C@@H](CCCCCCCCCCC2=C[C@@H](CCCCCCCCCC[C@H]3CC[C@@H](O)[C@@H](C)N3)[C@@H]3CCCN3C2)CC[C@H]1O [Juliprosopine]
antibacterial activity [2]: exhibiting antibacterial activity

OC[C@H]1O[C@@H](Oc2cc(O)c3c(c2)O[C@H](c2ccc(O)cc2)[C@H](O)C3)[C@H](O)[C@@H](O)[C@@H]1O [Symposide]
antifibrinolytic activity [3]: showed antifibrinolytic activity

O=C(OCc1cc(O)ccc1O[C@@H]1O[C@H](CO)[C@@H](O)[C@H](O)[C@H]1O)c1ccccc1 [salireposide]
inhibitory activity against snake venom Phosphodiesterase type I ([4]; Ahmad et al. Phytochemistry, 2003): inhibitory activity

Lipopolysaccharide [LPS]
IL-6 Conc. [5]: 11187 ± 214 pg/mL | Proinflammatory Cytokine induced Cell Death (%) [6]: 79.0% | NO Levels [7]: 2862.50 ± 87.50 µM | TNF ∝ Levels [8]: 3432.00 ± 140.50 pg/mL | TNF ∝ Levels (pg/ml) [8]: 3432.00 ± 140.50^• pg/ml

benzoylsalireposide
inhibitory activity against snake venom Phosphodiesterase type I [4]: inhibitory activity
